activity, response vs control in vivo and mortality data for 16 compounds are collected here from patent publication US5580869A, “1N substituted pyrazino[2,3-c]-1,2,6-thiadiazine 2,2-dioxides” (Prodesfarma, S.A., priority 1992, dated 1996).

Structures are written as SMILES. Like-named read-outs stand apart in the source and are kept apart here.

The test system of data set [1] is isolated guinea pig trachea. As to the kind of experiment: In vitro trachea relaxing activity (spontaneous tone in isolated trachea, method of Luduena). The class given is cell-based. Particulars: Cavia porcellus, relative to maximum relaxation by noradrenaline 0.3 mcg/ml; for activity at 30 µg/mL: 30 mcg/ml. The procedure:
The platelet antiaggregation activity was determined in vitro using platelet rich rabbit plasma and arachidonic acid (50 mcg/ml) as aggregation inducing agent. The results are given for tracheal relaxation as percentage inhibition of the tracheal tone relative to the maximum relaxation induced by noradrenaline (0.3 mcg/ml) and for the platelet aggregation as a percentage of the maximum effect observed with the proaggregation agent.

The subject of the next data set is rats. The data set can be described thus: Diuretic and saluretic activity (urine volume and electrolyte excretion over 6 h), technique of Lipschits et al. The format is in vivo. Particulars: rat; for response vs control in vivo at 20 mg/kg: 20 mg/kg po; for response vs control in vivo at 25 mg/kg: 25 mg/kg po; for response vs control in vivo at 10 mg/kg: 10 mg/kg po; for response vs control in vivo at 40 mg/kg: 40 mg/kg po. The procedure:
The synthesized compounds were, therefore, subjected a pharmacological screening to evaluate a possible diuretic and salt excreting activity. Thus, an acute dose of each of the products of synthesis (20 or 25 mg/kg) was administered to rats and the amount of urine and the excretion of electrolytes was measured, following the technique described by Lipschits et al., with certain modifications (J. Pharmacol. Exp.Ther. 1943-79; 97-110).
The volume (ml/kg/6 h), the pH and the excretion of sodium, potassium and chloride ions (mEq/kg/6 h) were determined on the urine quantitatively collected over 6 hours, using triamterene and hydrochlorothiazide as reference diuretics.

Data set [2] is described as follows: Mortality rate in the mouse after a single oral dose of 1600 mg/kg. Particulars: in vivo, single oral dose 1600 mg/kg. The procedure:
Likewise, to complete the superficial pharmacological profile, a check was made of the mortality rate in the mouse after oral administration of a single dose of 1600 mg/kg of each of the synthesized compounds (See Table 1).

Where [3] appears, read: (N) = not statistically significant vs control, read-out: Cl excretion, treated group/control group ratio.
Setting [4] is: (N) = not statistically significant vs control, read-out: K excretion, treated group/control group ratio.
[5] abbreviates: (N) = not statistically significant vs control, read-out: Na excretion, treated group/control group ratio.
Setting [6] is: (N) = not statistically significant vs control, read-out: Na/K.
[7] abbreviates: (N) = not statistically significant vs control, read-out: Volume urine, treated group/control group ratio.
[8] abbreviates: read-out: Cl excretion, treated group/control group ratio.
[9] abbreviates: read-out: K excretion, treated group/control group ratio.
[10] abbreviates: read-out: Na excretion, treated group/control group ratio.
[11] abbreviates: read-out: Volume urine, treated group/control group ratio.

`CCN1c2nc(C)c(Br)nc2C(N)=NS1(=O)=O` [6-bromo-1-ethyl-7-methyl, 4-amino-6-bromo-1-ethyl-7-methylpyrazino[2,3-c]-1,2,6-thiadiazine 2,2-dioxide]: the activity at 30 µg/mL in data set [1] was determined as 88%.
By mortality is commonly meant the percentage killed. As to `CCCN1c2nc(C)c(C)nc2C(N)=NS1(=O)=O` [6,7-dimethyl-1-propyl, 4-amino-6,7-dimethyl-1-propylpyrazino[2,3-c]-1,2,6-thiadiazine 2,2-dioxide], the response vs control in vivo at 20 mg/kg worked out at 593% with rats (setting [3]); 197% with rats (setting [4]); 609% in the data set with rats (setting [5]); 309% in the data set on rats (setting [6]); 175% in the data set with rats (setting [7]). The mortality in data set [2] came to 60%.
With `CCc1nc2c(nc1C)C(N)=NS(=O)(=O)N2CC` [1,7-diethyl-6-methyl, 4-amino-1,7-diethyl-6-methylpyrazino[2,3-c]-1,2,6-thiadiazine 2,2-dioxide], the response vs control in vivo at 25 mg/kg in the data set with rats (setting [3]) is 787%; with rats (setting [4]) it was 179%; in the data set with rats (setting [5]) it was 823%; in the data set on rats (setting [7]) it was 197%; with rats (read-out: Na/K) it was 460%. In data set [2], this compound yielded a mortality of 37.5%.
In the case of `Cc1nc2c(nc1C)N(CCN1CCOCC1)S(=O)(=O)N=C2N` [1-(2-morpholinoethyl)-6,7-dimethyl, 4-amino-1-(2-morpholinoethyl)-6,7-dimethylpyrazino[2,3-c]-1,2,6-thiadiazine 2,2-dioxide], the response vs control in vivo at 25 mg/kg came out at 102% in the data set with rats (setting [3]); 112% with rats (setting [4]); 246% in the data set with rats (setting [5]); 108% in the data set with rats (setting [7]); 220% in the data set on rats (read-out: Na/K). Further, the mortality in data set [2] turned out to be 85%.
Turning to `NS(=O)(=O)c1cc2c(cc1Cl)NCNS2(=O)=O` [Hydrochlorothiazide, reference compound], the response vs control in vivo at 10 mg/kg with rats (setting [8]) came out at 577%; in the data set on rats (setting [9]), 217%; in the data set on rats (setting [10]) it was 668%; in the data set on rats (read-out: Na/K), 308%; in the data set on rats (setting [11]), 166%. Besides, the response vs control in vivo at 40 mg/kg in the data set with rats (setting [8]) came to 626%; in the data set on rats (setting [9]), 265%; in the data set with rats (setting [10]), 773%; with rats (read-out: Na/K), 292%; in the data set with rats (setting [11]), 179%.
Turning to `CCOC(=O)CN1c2nc(-c3ccccc3)cnc2C(N)=NS1(=O)=O` [1-[(2-ethoxycarbonyl)-methyl]-7-phenyl, 4-amino-1-[(ethoxycarbonyl)methyl]-7-phenylpyrazino[2,3-c]-1,2,7-thiadiazine 2,2-dioxide], the activity at 30 µg/mL in data set [1] was 72%.
`CCCN1c2nc(CC)c(C)nc2C(N)=NS1(=O)=O` [1-ethyl-6-methyl-1-propyl, 4-amino-7-ethyl-6-methyl-1-propylpyrazino[2,3-c]-1,2,6-thiadiazine 2,2-dioxide]: the response vs control in vivo at 20 mg/kg came to 530% in the data set on rats (setting [3]); 172% in the data set with rats (setting [4]); 502% in the data set with rats (setting [5]); 292% in the data set with rats (setting [6]); 154% in the data set with rats (setting [7]). In data set [2], the mortality stood at 40%.
Consider `Cc1nc2c(nc1C)N(CCN(C(C)C)C(C)C)S(=O)(=O)N=C2N` [4-amino-1-[2-(N,N-diisopropylamino)ethyl]-6,7-dimethylpyrazino[2,3-c]-1,2,6-thiadiazine 2,2-dioxide], for which the response vs control in vivo at 25 mg/kg in the data set with rats (setting [3]) stood at 156%; in the data set with rats (setting [4]), 94%; in the data set on rats (setting [5]), 193%; in the data set with rats (setting [7]), 84%; in the data set with rats (read-out: Na/K) it was 205%. Moreover, the mortality in data set [2] was 62%.
Consider `CCN1c2nc(-c3ccccc3)cnc2C(N)=NS1(=O)=O` [1-ethyl-7-phenyl, 4-amino-1-ethyl-7-phenylpyrazino[2,3-c]-1,2,6-thiadiazine 2,2-dioxide], for which the response vs control in vivo at 20 mg/kg with rats (setting [3]) was 136%; with rats (setting [4]), 140%; in the data set on rats (setting [5]), 131%; in the data set with rats (setting [6]), 94%; in the data set on rats (setting [7]), 121%. The compound also had an activity at 30 µg/mL in data set [1] of 95%.
Regarding `CCc1nc2c(nc1C)N(CC)S(=O)(=O)N=C2N` [1,6-diethyl-7-methyl, 4-amino-1,6-diethyl-7-methylpyrazino[2,3-c]-1,2,6-thiadiazine 2,2-dioxide], the response vs control in vivo at 20 mg/kg is 89% with rats (setting [3]); 91% in the data set with rats (setting [4]); 56% in the data set on rats (setting [5]); 62% with rats (setting [6]); 104% in the data set on rats (setting [7]). The same compound displayed an activity at 30 µg/mL in data set [1] of 95%.
For the compound `Cc1nc2c(nc1C)N(CCO)S(=O)(=O)N=C2N` [1-(2-hydroxyethyl)-6,7-dimethyl, 4-amino-1-(2-hydroxyethyl)-6,7-dimethylpyrazino[2,3-c]-1,2,6-thiadiazine 2,2-dioxide], the response vs control in vivo at 25 mg/kg in the data set on rats (setting [3]) turned out to be 141%; in the data set on rats (setting [4]), 189%; with rats (setting [5]) it was 203%; with rats (setting [7]) it was 106%; in the data set with rats (read-out: Na/K), 107%. This compound also gave a mortality in data set [2] of 0%.
With `CCc1nc2c(nc1C)C(NC)=NS(=O)(=O)N2CC` [1,7-diethyl-4-(methylamino)-6-methyl, 1,7-diethyl-4-(methylamino)-6-methylpyrazino[2,3-c]-1,2,6-thiadiazine 2,2-dioxide], the response vs control in vivo at 20 mg/kg in the data set on rats (setting [3]) came to 424%; in the data set with rats (setting [4]), 155%; with rats (setting [5]), 344%; with rats (setting [6]), 156%; in the data set with rats (setting [7]) it was 139%. For the same compound, the activity at 30 µg/mL in data set [1] was 75%.
In the case of `CCN1c2nc(C(F)(F)F)c(C(F)(F)F)nc2C(N)=NS1(=O)=O` [1-ethyl-6,7-bis(trifluoromethyl), 4-amino-1-ethyl-6,7-bis(trifluoromethyl)pyrazino[2,3-c]-1,2,6-thiadiazine 2,2-dioxide], the response vs control in vivo at 25 mg/kg in the data set with rats (setting [3]) is 112%; in the data set with rats (setting [4]), 99%; with rats (setting [5]), 129%; with rats (setting [7]), 128%; in the data set on rats (read-out: Na/K) it was 130%. In addition, the mortality in data set [2] was found to be 100%.
As for `CCc1nc2c(nc1C)C(NN)=NS(=O)(=O)N2CC`, the activity at 30 µg/mL in data set [1] turned out to be 72%.
For the compound `Nc1cc(-c2ccncc2)c[nH]c1=O` [Amrinone, reference compound], the activity at 3 µg/mL in data set [1] (3 mcg/ml) was 65%.
Take `Nc1nc(N)c2nc(-c3ccccc3)c(N)nc2n1` [Triamterene, reference compound]: the response vs control in vivo at 20 mg/kg in the data set with rats (setting [3]) was found to be 237%; with rats (setting [4]) it was 34%; in the data set on rats (setting [5]), 579%; in the data set on rats (setting [7]), 145%. Further, the response vs control in vivo at 25 mg/kg in the data set with rats (setting [3]) worked out at 260%; with rats (setting [4]), 36%; with rats (setting [5]), 596%; in the data set on rats (setting [7]) it was 165%.
